The record followed here is ChEMBL document CHEMBL6109168, “Novel Compounds as 5-HT2A Receptor Modulators for Treating Psychiatric and Neurological Disorders” (ACS Med Chem Lett, 2025).

In general, EC50 refers to the concentration at which the effect is half-maximal.

Bounds are passed on as bounds.

In this experiment the target is 5-hydroxytryptamine receptor 2A (Homo sapiens, UniProt P28223). Put plainly: Agonist activity at human 5HT2A receptor expressed in HEK293 cells assessed as IP1 accumulation by HTRF assay. The experiment is classed as functional, cell-based. In general terms: Time-resolved FRET reads energy transfer from a long-lived donor to a nearby acceptor.
Chain of 5-hydroxytryptamine receptor 2A (P28223 whole entry): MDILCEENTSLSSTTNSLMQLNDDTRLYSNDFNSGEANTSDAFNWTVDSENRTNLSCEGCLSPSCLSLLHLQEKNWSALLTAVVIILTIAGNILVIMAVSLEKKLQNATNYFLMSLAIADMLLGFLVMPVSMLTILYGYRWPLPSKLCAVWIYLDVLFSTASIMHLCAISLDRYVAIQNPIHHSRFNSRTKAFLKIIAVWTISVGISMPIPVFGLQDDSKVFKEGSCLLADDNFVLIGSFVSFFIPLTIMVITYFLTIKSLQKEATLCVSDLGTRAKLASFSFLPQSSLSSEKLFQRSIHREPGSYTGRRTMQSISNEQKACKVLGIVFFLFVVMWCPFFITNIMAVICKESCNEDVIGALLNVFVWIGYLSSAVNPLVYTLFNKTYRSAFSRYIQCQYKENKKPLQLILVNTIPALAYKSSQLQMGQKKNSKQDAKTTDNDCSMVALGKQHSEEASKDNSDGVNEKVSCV
As to `N#Cc1c(F)ccc2c(C3=CCCNC3)c[nH]c12`, the EC50 is less than 100 nM.

With `C1=C(c2csc3ccccc23)CNCC1`, the 50% effective concentration (EC50) is less than 100 nM.

Turning to `N#Cc1cc(F)cc2c(C3=CCCNC3)c[nH]c12`, the half-maximal effective concentration (EC50) was less than 100 nM.

Take `Oc1cccc2[nH]cc(C3=CCCNC3)c12`: the concentration giving a half-maximal response (EC50) was less than 100 nM.

For the compound `Fc1ccc2c(C3=CCCNC3)n[nH]c2c1F`, the EC50 is less than 100 nM.

Consider `COc1cc(Cl)c2[nH]cc(C3=CCCNC3)c2c1`, for which the EC50 was less than 100 nM.
